Among the data in PubChem BioAssay (NCI) are GI50 and TGI values, retold here.

What all share (assay): inhibition of tumour cell growth, NCI panel, 48 h
The subject of experiment [1] is HCC-2998 colon.
Experiment [2] relates to EKVX NSCLC.
Experiment [3] concerns NCI-H522 lung.
Experiment [4] concerns T-47D breast.
In experiment [5] the test system is SF-295 CNS.
Experiment [6] relates to K-562 leukemia.
Experiment [7] has as its system IGROV1 ovarian.
The subject of experiment [8] is SK-OV-3 ovarian.
In experiment [9] the test system is MALME-3M melanoma.
Experiment [10] has as its system MDA-MB-435.

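How tested: cells in 96-well plates exposed to compound for 48 hours at five concentrations. The concentration for 50% growth inhibition is given as GI50. TGI: total growth inhibition.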

`Cc1cc(NCc2cc(Nc3ccnc4cc(Cl)ccc34)ccc2F)nc(N2CCSCC2)n1`: the GI50 in experiment [1] was 1.96 µM; in experiment [2], 2.8 µM; in [3], 1.96 µM; in experiment [4], 1.97 µM; in experiment [5], 1.31 µM; in experiment [6], 0.906 µM. In addition, the GI50 in experiment [7] was 1.83 µM; in experiment [8] it was 1.82 µM. Also, the TGI is 4.04 µM in experiment [1]; 83.9 µM in experiment [2]; 4.49 µM in experiment [3]; 4.71 µM in [4]; 2.76 µM in experiment [5]; 3.35 µM in [6]. In addition, the TGI in [7] is 4.42 µM; in experiment [8], 3.64 µM.
As for `CC[C@H]1CN(C)[C@H]2Cc3c([nH]c4ccccc34)C(=O)C[C@H]1C2C(=O)OC` (stereo partly drawn), the TGI in [9], in [1], in experiment [2], in experiment [3], in experiment [4] and in [10] was over 100 µM throughout. For the same compound, the TGI in experiment [5], in experiment [7] and in experiment [8] was over 100 µM each time.
For `CCOC(=O)c1ccccc1SC(C[N+](=O)[O-])c1ccccc1` (stereo not drawn), the GI50 is 14.8 µM in [9]; 1.86 µM in experiment [1]; 11 µM in experiment [3]; 5.32 µM in experiment [4]; 2.91 µM in experiment [10]; 18.3 µM in experiment [5]. Further, the GI50 in [6] was 3.01 µM; in [7] it was 3.88 µM; in experiment [8], 12.7 µM. The TGI in experiment [9] was determined as 29.5 µM; in [1], 3.36 µM; in experiment [3] it was 23.3 µM; in experiment [4] it was 42.6 µM; in experiment [10], 11.4 µM; in experiment [5] it was 34.6 µM. For the same compound, the figures for the TGI in experiment [6], in [7] and in experiment [8] were 16 µM, 15 µM and 26.5 µM, respectively.
Regarding `Oc1ccc2ccccc2c1N=Nc1ccc(Cl)cc1`, the TGI in experiment [9], in experiment [2], in [3], in [4], in experiment [10] and in experiment [5] was over 100 µM throughout. The TGI in experiment [6], in experiment [7] and in experiment [8] was over 100 µM in each case.
For the compound `CC(C)C[CH2][Ge]([CH2]CC(C)C)([CH2]CC(C)C)[CH2]CC(C)C`, the GI50 in experiment [2], in experiment [3], in experiment [4], in experiment [10], in [5] and in experiment [6] was over 100 µM in each case. The GI50 in [7] and in experiment [8] was over 100 µM each time. For the same compound, the TGI in experiment [2], in experiment [3], in experiment [4], in experiment [10], in [5] and in experiment [6] was over 100 µM each time. In addition, the TGI in experiment [7] and in experiment [8] was over 100 µM in each case.
For `CCOC(=O)c1ccc(N(C=O)CCC(=O)CCl)cc1`, the GI50 in experiment [9] is 1.49 µM; in experiment [1], 0.372 µM; in experiment [3] it was 0.138 µM; in [4], 1.16 µM; in [10], 0.0908 µM; in experiment [5], 1.2 µM. In addition, the GI50 is 0.0353 µM in [6], 0.537 µM in [7] and 1.41 µM in [8]. For the same compound, the TGI was 3.48 µM in experiment [9]; 1.54 µM in [1]; 0.617 µM in experiment [3]; 3.45 µM in experiment [4]; 0.37 µM in experiment [10]; 13 µM in [5]. Moreover, the TGI in [6] was over 69.3 µM; in experiment [7], 8.33 µM; in [8], 13.2 µM.
Consider `O=C1NC(=O)[C@@H](c2c[nH]c3ccccc23)[C@@H]1c1c[nH]c2ccccc12`, for which the GI50 was over 21.8 µM in [9]; over 25 µM in experiment [1]; over 25 µM in [3]; over 25 µM in experiment [4]; over 25 µM in experiment [10]; over 25 µM in experiment [5]. Further, the GI50 in experiment [6], in experiment [7] and in experiment [8] was over 25 µM throughout. Moreover, the TGI in experiment [9], in experiment [1], in [3], in [4], in experiment [10] and in experiment [5] was over 25 µM throughout. Besides, the TGI in experiment [6], in experiment [7] and in experiment [8] was over 25 µM each time.
Take `COc1ccc(-c2nnc(SCC(=O)Nc3ccc(C(=O)/C=C/c4cc(OC)c(OC)c(OC)c4)cc3)n2-c2ccccc2)cc1OC`: the GI50 in [9] is over 10 µM; in experiment [1], 3.08 µM; in experiment [4], 4.74 µM; in [10], 1.77 µM; in experiment [5], over 10 µM; in [6], 4.92 µM. The GI50 in experiment [7] is 7.72 µM; in experiment [8] it was 6.06 µM. In addition, the TGI in experiment [9] is over 10 µM; in experiment [1] it was over 10 µM; in [4], over 10 µM; in experiment [10] it was 9.91 µM; in [5], over 10 µM; in [6] it was over 10 µM. Moreover, the TGI in experiment [7] and in experiment [8] was over 10 µM in each case.
As for `Clc1ccc2nc(Cl)c3ccccc3c2c1`, the GI50 is 10.7 µM in experiment [9]; over 100 µM in experiment [1]; 63.4 µM in experiment [3]; 4.02 µM in [4]; 23.6 µM in experiment [10]; 10.5 µM in experiment [5]. For the same compound, the GI50 in experiment [6] is over 100 µM; in experiment [7], 6.21 µM; in [8], 5.17 µM. Moreover, the TGI in experiment [9] was 71.1 µM; in experiment [1], over 100 µM; in [3] it was over 100 µM; in [4], over 100 µM; in experiment [10], over 100 µM; in [5], 35.7 µM. Besides, the figures for the TGI in experiment [6], in [7] and in experiment [8] were over 100 µM, 86.8 µM and 21.2 µM, respectively.
